# From the supplement of paper PMC11208160
# Experiment: recombinant UMI read abundance after kanamycin selection (control-corrected) (log10(CPM+1)); higher = more efficient recombination; extreme values may be limits of the assay; sequences stand for … in AGTGCAGAGAAAATCGGCCAGTTTTCTCTGCCTGCAGTCCGCATGCCGTGGGACCCCTTGGGTTCTAACCTGTTGCCTAGATTTATGCAGCGGACTGCCTTTCTCCCAAAGTGATAAACCGG…AGGTTGGTTTCACT; site = the 11-nt donor
# How it was run: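 Values are reported as log10(CPM+1), obtained by converting sequencing counts to CPM, averaging replicates and scaling by control-derived factors. The counts came from recombinant UMIs amplified by PCR across the donor–target junction. These UMIs came from a pooled Escherichia coli screen of donor and donor-binding-loop pairs for the IS621 bridge recombinase, plated with IPTG (0.07 mM) plus kanamycin or left unselected, in two replicates each.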
# 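Note: IS621 bridge recombinase in Escherichia coli cells against a fixed T5 target plasmid.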
row,Sequence,recombinant UMI read abundance (log10)
1,AGGACTACATGGACCGGTTTTCCCGGTAATCCGTATTTGAC (site AGGACTACTGG),0
2,AGGACTACATGGACCGGTTTTCCCGGTAATCCGTATTTGAC (site AGGACTACTGT),2.29
3,AGGACTACATGGACCGGTTTTCCCGGTAATCCGTATTTGAC (site AGGACTACTTT),0.0694
4,AGGACTACATGGACCGGTTTTCCCGGTAATCCGTATTTGAC (site AGGACTCCTGT),0
5,AGGACTACATGGACCGGTTTTCCCGGTAATCCGTATTTGAC (site AGGACTGCTGT),0.359
6,AGGACTACATGGACCGGTTTTCCCGGTAATCCGTATTTGAC (site AGGACTTCTGT),0.0138
7,AGGACTACATGGACCGGTTTTCCCGGTAATCCGTATTTGAC (site AGGAGTACTGT),0
8,AGGACTACATGGACCGGTTTTCCCGGTAATCCGTATTTGAC (site AGGATTACTGT),0.471
9,AGGACTACATGGACCGGTTTTCCCGGTAATCCGTATTTGAC (site AGGCCTACTGT),0.988
10,AGGACTACATGGACCGGTTTTCCCGGTAATCCGTATTTGAC (site AGGGCTACTGT),0
11,AGGACTACATGGACCGGTTTTCCCGGTAATCCGTATTTGAC (site AGGTCTACTGT),1.2
12,AGGACTACATGGACCGGTTTTCCCGGTAATCCGTATTTGAC (site AGTACTACTGT),0.941
13,AGGACTACATGGACCGGTTTTCCCGGTAATCCGTATTTGAC (site ATGACTACTGT),1.13
14,AGGACTACATGGACCGGTTTTCCCGGTAATCCGTATTTGAC (site CGGACTACTGT),0.831
15,AGGACTACATGGACCGGTTTTCCCGGTAATCCGTATTTGAC (site GGGACTACTGT),0
16,AGGACTACATGGACCGGTTTTCCCGGTAATCCGTATTTGAC (site TGGACTACTGT),0.901
17,AGGACTACATGGACCGGTTTTCCCGGTAATCCGTATTTGCA (site AGGAAGACTTG),0
18,AGGACTACATGGACCGGTTTTCCCGGTAATCCGTATTTGCA (site AGGACTACTTG),2.22
19,AGGACTCCATGGACCGGTTTTCCCGGTAATCCGTATTTGAC (site AGGACTACTGT),0
20,AGGACTCCATGGACCGGTTTTCCCGGTAATCCGTATTTGAC (site AGGACTCCTGT),0.719
21,AGGACTCCATGGACCGGTTTTCCCGGTAATCCGTATTTGAC (site AGGACTGCTGT),0
22,AGGACTCCATGGACCGGTTTTCCCGGTAATCCGTATTTGAC (site AGGACTTCTGT),0
23,AGGACTGCATGGACCGGTTTTCCCGGTAATCCGTATTTGAC (site AGGACTACTGT),2.15
24,AGGACTGCATGGACCGGTTTTCCCGGTAATCCGTATTTGAC (site AGGACTCCTGT),0.533
25,AGGACTGCATGGACCGGTTTTCCCGGTAATCCGTATTTGAC (site AGGACTGCTGT),2.92

row,Sequence,recombinant UMI read abundance (log10)
1,AGGACTGCATGGACCGGTTTTCCCGGTAATCCGTATTTGAC (site AGGACTTCTGT),0
2,AGGAGATCATGGACCGGTTTTCCCGGTAATCCGTATTTGGG (site AGGAGATCTCC),0.505
3,AGGAGGCCATGGACCGGTTTTCCCGGTAATCCGTATTTGCA (site AGGAAGACTTG),0
4,AGGAGGCCATGGACCGGTTTTCCCGGTAATCCGTATTTGCA (site AGGAGGCCTTG),0.211
5,AGGAGGGCATGGACCGGTTTTCCCGGTAATCCGTATTTGCC (site AGGAGGGCTGG),2.16
6,AGGAGTGCATGGACCGGTTTTCCCGGTAATCCGTATTTGAG (site AGGAGTGCTCT),2.37
7,AGGATAACATGGACCGGTTTTCCCGGTAATCCGTATTTGCA (site AGGAAGACTTG),1.01
8,AGGATAACATGGACCGGTTTTCCCGGTAATCCGTATTTGCA (site AGGATAACTTG),2.55
9,AGGATCTCATGGACCGGTTTTCCCGGTAATCCGTATTTGAA (site AGGATCTCTTT),2.92
10,AGGATGTCATGGACCGGTTTTCCCGGTAATCCGTATTTGCA (site AGGAAGACTTG),0.00922
11,AGGATGTCATGGACCGGTTTTCCCGGTAATCCGTATTTGCA (site AGGATGTCTTG),3.06
12,AGGCAGGCATGGACCGGTTTTCCCGGTAATCCGTATTTGCA (site AGGAAGACTTG),0
13,AGGCAGGCATGGACCGGTTTTCCCGGTAATCCGTATTTGCA (site AGGCAGGCTTG),2.63
14,AGGCATACATGGACCGGTTTTCCCGGTAATCCGTATTTGCA (site AGGAAGACTTG),0
15,AGGCATACATGGACCGGTTTTCCCGGTAATCCGTATTTGCA (site AGGCATACTTG),2.15
16,AGGCGACCATGGACCGGTTTTCCCGGTAATCCGTATTTGTT (site AGGCGACCTAA),0.00859
17,AGGCTCCCATGGACCGGTTTTCCCGGTAATCCGTATTTGTG (site AGGATCCCTCA),0.00474
18,AGGCTCCCATGGACCGGTTTTCCCGGTAATCCGTATTTGTG (site AGGCTCCCTCA),0.0267
19,AGGCTCCCATGGACCGGTTTTCCCGGTAATCCGTATTTGTG (site AGGGTCCCTCA),0.0171
20,AGGCTCCCATGGACCGGTTTTCCCGGTAATCCGTATTTGTG (site AGGTTCCCTCA),0.0277
21,AGGGACCCATGGACCGGTTTTCCCGGTAATCCGTATTTGAA (site AGGGACCCTTT),0.531
22,AGGGAGACATGGACCGGTTTTCCCGGTAATCCGTATTTGTA (site AGGAAGACTTG),0
23,AGGGAGACATGGACCGGTTTTCCCGGTAATCCGTATTTGTA (site AGGGAGACTTA),1.57
24,AGGGGTCCATGGACCGGTTTTCCCGGTAATCCGTATTTGTA (site AGGGGTCCTTA),0.489
25,AGGTAATCATGGACCGGTTTTCCCGGTAATCCGTATTTGAG (site AGGTAATCTCT),2.83

row,Sequence,recombinant UMI read abundance (log10)
1,AGGTACACATGGACCGGTTTTCCCGGTAATCCGTATTTGCA (site AGGAAGACTTG),0
2,AGGTACACATGGACCGGTTTTCCCGGTAATCCGTATTTGCA (site AGGTACACTTG),2.46
3,AGGTCAACATGGACCGGTTTTCCCGGTAATCCGTATTTGAT (site AGGTCAACTAT),0.075
4,AGGTCCCCATGGACCGGTTTTCCCGGTAATCCGTATTTGTG (site AGGTACCCTCA),0.0207
5,AGGTCCCCATGGACCGGTTTTCCCGGTAATCCGTATTTGTG (site AGGTCCCCTCA),0.0562
6,AGGTCCCCATGGACCGGTTTTCCCGGTAATCCGTATTTGTG (site AGGTGCCCTCA),0.0373
7,AGGTCCCCATGGACCGGTTTTCCCGGTAATCCGTATTTGTG (site AGGTTCCCTCA),0.00496
8,AGGTCCTCATGGACCGGTTTTCCCGGTAATCCGTATTTGGG (site AGGTCCTCTCC),0.0176
9,AGGTGACCATGGACCGGTTTTCCCGGTAATCCGTATTTGCC (site AGGTGACCTGG),0
10,AGGTGCACATGGACCGGTTTTCCCGGTAATCCGTATTTGAA (site AGGTGCACTTT),0.73
11,AGGTGCCCATGGACCGGTTTTCCCGGTAATCCGTATTTGTG (site AGGTACCCTCA),0.015
12,AGGTGCCCATGGACCGGTTTTCCCGGTAATCCGTATTTGTG (site AGGTCCCCTCA),0.0213
13,AGGTGCCCATGGACCGGTTTTCCCGGTAATCCGTATTTGTG (site AGGTGCCCTCA),0.0128
14,AGGTGCCCATGGACCGGTTTTCCCGGTAATCCGTATTTGTG (site AGGTTCCCTCA),0.755
15,AGGTGGTCATGGACCGGTTTTCCCGGTAATCCGTATTTGCA (site AGGTGGTCTTG),2.62
16,AGGTTCCCATGGACCGGTTTTCCCGGTAATCCGTATTTGAG (site AGGTTCCCTCA),0
17,AGGTTCCCATGGACCGGTTTTCCCGGTAATCCGTATTTGAG (site AGGTTCCCTCC),0.0175
18,AGGTTCCCATGGACCGGTTTTCCCGGTAATCCGTATTTGAG (site AGGTTCCCTCG),0.00792
19,AGGTTCCCATGGACCGGTTTTCCCGGTAATCCGTATTTGAG (site AGGTTCCCTCT),0.00255
20,AGGTTCCCATGGACCGGTTTTCCCGGTAATCCGTATTTGTC (site AGGTTCCCTAA),0.0146
21,AGGTTCCCATGGACCGGTTTTCCCGGTAATCCGTATTTGTC (site AGGTTCCCTCA),0.0034
22,AGGTTCCCATGGACCGGTTTTCCCGGTAATCCGTATTTGTC (site AGGTTCCCTGA),0
23,AGGTTCCCATGGACCGGTTTTCCCGGTAATCCGTATTTGTC (site AGGTTCCCTTA),0
24,AGGTTCCCATGGACCGGTTTTCCCGGTAATCCGTATTTGTG (site AAGTTCCCTCA),0.0108
25,AGGTTCCCATGGACCGGTTTTCCCGGTAATCCGTATTTGTG (site ACGTTCCCTCA),0.0097
